Data: patent US20230146795A1, “ENHANCEMENT OF ANTI-TUMOR ACTIVITY OF SHP2 INHIBITOR PYRIMIDINONE IN COMBINATION WITH NOVEL CANCER MEDICINES IN CANCERS” (TAIHO PHARMACEUTICAL CO., LTD., priority 2020, published 2023)

Experiments:
Type in all cases: cell-based
[1] = test system: NCI-H358; experiment: Anti-proliferation assay (CellTiter-Glo 2.0), combination index, NCI-H358
Procedure: (§1) Cell lines were obtained from ATCC or Health Science Research Resources Bank.
(§2) Each cell lines were collected by ordinary method, then suspended in indicated medium containing 10% fetal bovine serum in table 3. The number of cells seeded per well was set to 500 cells/20 μL. […] The concentration of each anti-cancer reagents set to 8 concentrations including 0 nM. After adding the medicine to the cells, the cells were further incubated at 37° C. for 3 days under 5% CO2. Cell survival rates were calculated by adding 20 μL of CellTiter-Glo(registered trademark) 2. 0 (Promega) solution to each well, incubating the cells at room temperature for 10 minutes, and then measuring the chemiluminescence intensity of each well using a plate reader (ARVO).
(§3) A combination index (CI) value at each combined concentration of the medicines was determined.

[2] = test system: MKN45; experiment: Anti-proliferation assay (CellTiter-Glo 2.0), combination index, MKN45; conditions: for Description: combination effect
Procedure: as §1, §2, §3

[3] = test system: RT4; experiment: Anti-proliferation assay (CellTiter-Glo 2.0), combination index, RT4; conditions: for Description: combination effect
Procedure: as §1, §2, §3

[4] = Compound 1 4.57 + combination drug 41.2 nmol/L (1:9)
[5] = Compound 1 13.7 + combination drug 123 nmol/L (1:9)
[6] = Compound 1 41.2 + combination drug 370 nmol/L (1:9)
[7] = Compound 1 123 + combination drug 1110 nmol/L (1:9)
[8] = Compound 1 370 + combination drug 3330 nmol/L (1:9)
[9] = Compound 1 1110 + combination drug 10000 nmol/L (1:9)
[10] = Compound 1 41.2 nmol/L + Cisplatin 1110 nmol/L, molar ratio 1:27
[11] = Compound 1 123 nmol/L + Cisplatin 3330 nmol/L, molar ratio 1:27
[12] = Compound 1 370 nmol/L + Cisplatin 10000 nmol/L, molar ratio 1:27
[13] = Compound 1 4.57 nmol/L + Cisplatin 370 nmol/L, molar ratio 1:81
[14] = Compound 1 13.7 nmol/L + Cisplatin 1110 nmol/L, molar ratio 1:81
[15] = Compound 1 123 + combination drug 41.2 nmol/L (1:0.3)
[16] = Compound 1 370 + combination drug 123 nmol/L (1:0.3)
[17] = Compound 1 1110 + combination drug 370 nmol/L (1:0.3)
[18] = Compound 1 3330 + combination drug 1110 nmol/L (1:0.3)
[19] = Compound 1 10000 + combination drug 3330 nmol/L (1:0.3)
[20] = Compound 1 41.2 nmol/L + 5-FU 3330 nmol/L, molar ratio 1:81
[21] = Compound 1 123 nmol/L + 5-FU 10000 nmol/L, molar ratio 1:81
[22] = Compound 1 123 nmol/L + FTD 3330 nmol/L, molar ratio 1:27
[23] = Compound 1 370 nmol/L + FTD 10000 nmol/L, molar ratio 1:27
[24] = Compound 1 370 nmol/L + FTD 123 nmol/L, molar ratio 1:0.3
[25] = Compound 1 1110 nmol/L + FTD 370 nmol/L, molar ratio 1:0.3
[26] = Compound 1 3330 nmol/L + FTD 1110 nmol/L, molar ratio 1:0.3
[27] = Compound 1 12.3 nmol/L + Gemcitabine 1.23 nmol/L, molar ratio 1:0.1
[28] = Compound 1 37.0 nmol/L + Gemcitabine 3.70 nmol/L, molar ratio 1:0.1

Cn1cnc2c(F)c(Nc3ccc(Br)cc3F)c(C(=O)NOCCO)cc21 [Binimetinib]
CI [1, 4]: 0.883
Fa [1, 4]: 0.0312
CI [1, 5]: 0.223
Fa [1, 5]: 0.1821
CI [1, 6]: 0.196
Fa [1, 6]: 0.3954
CI [1, 7]: 0.222
Fa [1, 7]: 0.6241
CI [1, 8]: 0.349
Fa [1, 8]: 0.7635
CI [1, 9]: 0.673
Fa [1, 9]: 0.8387
CI [2, 5]: 0.630
Fa [2, 5]: 0.2390
CI [2, 6]: 0.387
Fa [2, 6]: 0.5003
CI [2, 7]: 0.212
Fa [2, 7]: 0.7765
CI [2, 8]: 0.360
Fa [2, 8]: 0.8408

N.N.[Cl][Pt][Cl] [Cisplatin]
CI [2, 10]: 0.694
Fa [2, 10]: 0.2057
CI [2, 11]: 0.626
Fa [2, 11]: 0.5148
CI [2, 12]: 0.681
Fa [2, 12]: 0.8006
Description ([2]; Compound 1 + Cisplatin, molar ratio 1:27): Synergy (0.3-0.7)
CI [3, 13]: 0.632
Fa [3, 13]: 0.0886
CI [3, 14]: 0.539
Fa [3, 14]: 0.2585
Description ([3]; Compound 1 + Cisplatin, molar ratio 1:81): Synergy (0.3-0.7)

O=C(c1ccc(F)c(F)c1Nc1ccc(I)cc1F)N1CC(O)([C@@H]2CCCCN2)C1 [Cobimetinib]
CI [1, 15]: 0.334
Fa [1, 15]: 0.3595
CI [1, 16]: 0.172
Fa [1, 16]: 0.5769
CI [1, 17]: 0.165
Fa [1, 17]: 0.7439
CI [1, 18]: 0.258
Fa [1, 18]: 0.8360
CI [1, 19]: 0.585
Fa [1, 19]: 0.8699
CI [2, 5]: 0.806
Fa [2, 5]: 0.2247
CI [2, 6]: 0.459
Fa [2, 6]: 0.6457
CI [2, 7]: 0.616
Fa [2, 7]: 0.8262
Description (combinatory effect by CI) ([2]; Compound 1:combination drug molar ratio 1:9): Synergy (0.3-0.7)

O=c1[nH]cc(F)c(=O)[nH]1 [Compound 5-FU]
CI [2, 20]: 0.738
Fa [2, 20]: 0.4610
CI [2, 21]: 0.399
Fa [2, 21]: 0.7197
Description ([2]; Compound 1 + 5-FU, molar ratio 1:81): Synergy (0.3-0.7)

O=c1[nH]c(=O)n([C@H]2C[C@H](O)[C@@H](CO)O2)cc1C(F)(F)F [FTD]
CI [2, 22]: 0.716
Fa [2, 22]: 0.6654
CI [2, 23]: 0.494
Fa [2, 23]: 0.8785
Description ([2]; Compound 1 + FTD, molar ratio 1:27): Synergy (0.3-0.7)
CI [3, 24]: 0.468
Fa [3, 24]: 0.4667
CI [3, 25]: 0.676
Fa [3, 25]: 0.6009
CI [3, 26]: 0.618
Fa [3, 26]: 0.7931
Description ([3]; Compound 1 + FTD, molar ratio 1:0.3): Synergy (0.3-0.7)

Nc1ccn([C@@H]2O[C@H](CO)[C@@H](O)C2(F)F)c(=O)n1 [Gemcitabine]
CI [2, 27]: 0.698
Fa [2, 27]: 0.2152
CI [2, 28]: 0.878
Fa [2, 28]: 0.4083
Description ([2]; Compound 1 + Gemcitabine, molar ratio 1:0.1): Synergy (0.3-0.7)
